pEC50, pIC50: −log10 of the molar value. Like-named read-outs stand apart in the source and are kept apart here.
Legend:
[1] = tested on: HCV replicon (NS3-NS5B regions of HCV type 1b) in Huh-7 luc/neo cells; assay: HCV replicon assay (Huh-Luc cells, luciferase read-out); assay type: cell-based; conditions: Hepatitis C virus
Source text: The compounds of Formula (I) were examined for activity against HCV in a cellular assay. […] The cellular assay was based on a bicistronic expression construct, as described by Lohmann et al. (1999) Science vol. 285 pp. 110-113 with modifications described by Krieger et al. (2001) Journal of Virology 75: 4614-4624, in a multi-target screening strategy.
In essence, the method was as follows. The assay utilized the stably transfected cell line Huh-7 luc/neo (hereafter referred to as Huh-Luc). This cell line harbors an RNA encoding a bicistronic expression construct comprising the wild type NS3-NS5B regions of HCV type 1b translated from an internal ribosome entry site (IRES) from encephalomyocarditis virus (EMCV), preceded by a reporter portion (FfL-luciferase), and a selectable marker portion (neo^R, neomycine phosphotransferase). The construct is bordered by 5′ and 3′ NTRs (non-translated regions) from HCV genotype 1b. Continued culture of the replicon cells in the presence of G418 (neo^R) is dependent on the replication of the HCV-RNA. The stably transfected replicon cells that express HCV-RNA, which replicates autonomously and to high levels, encoding inter alia luciferase, were used for screening the antiviral compounds.
The replicon cells were plated in 384-well plates in the presence of the test and control compounds which were added in various concentrations. Following an incubation of three days, HCV replication was measured by assaying luciferase activity (using standard luciferase assay substrates and reagents and a Perkin Elmer ViewLux™ ultraHTS microplate imager). Replicon cells in the control cultures have high luciferase expression in the absence of any inhibitor. The inhibitory activity of the compound on luciferase activity was monitored on the Huh-Luc cells, enabling a dose-response curve for each test compound. EC50 values were then calculated, which value represents the amount of the compound required to decrease the level of detected luciferase activity by 50%, or more specifically, the ability of the genetically linked HCV replicon RNA to replicate.

[2] = tested on: DENV-2/16681/eGFP; assay: Antiviral activity against DENV-2/16681/eGFP in Vero cells (eGFP read-out); assay type: cell-based, dengue virus serotype 2; conditions: Dengue virus, DENV2, Vero, 72 h, read-out: DENV Vero (EC50, μM)
Protocol: (§1) The antiviral activity of the compounds against DENV-2/16681/eGFP was determined in a phenotypic antiviral assay with eGFP read-out, a measure for the amount of virus (TV-WI-03476 and TV-WI-05601). In parallel, cytotoxicity of the compounds was measured using ATPLite™ (PerkinElmer, Waltham, Mass.). The assay was performed in two different cell-lines (Vero and Huh-7) to exclude cell-specific activity of the compound.
(§2) DENV-2/16681/eGFP was produced by the transfection of the in vitro transcribed RNA of plasmid pFK-DVs-G2A (purchased from Prof. R. Bartenschlager, University of Heidelberg, Germany; FIG. 1) into Huh-7 cells (human hepatocarcinoma cells; kindly provided by Prof. R. Bartenschlager) (TV-WI-04247).
(§3) In brief, 2,500 Vero cells (African green monkey kidney cells; European Collection of Cell Cultures [ECACC], Porton Down, UK; catalogue number 84113001) or Huh-7 cells were seeded in 384-well plates containing 9-fold serially diluted test compound. After incubating 24 h at 37° C., Vero and Huh-7 cells were infected with DENV-2/16681/eGFP at a multiplicity of infection (MOI) of 1 and 5, respectively. After 3 days of incubation at 37° C., the viral replication was quantified by measuring eGFP expression in the cells with a laser microscope. The 50% effective concentration (EC50) was defined as the concentration inhibiting 50% of the eGFP expression of the compound-treated DENV-infected cells vs. the untreated DENV-infected cells (virus control), using the cell controls as baseline of eGFP signal (i.e., 0% signal). In the same way, the 90% effective concentration (EC90) was calculated.

[3] = tested on: DENV-2/16681/eGFP; assay: Antiviral activity against DENV-2/16681/eGFP in Huh-7 cells (eGFP read-out); assay type: cell-based, dengue virus serotype 2; conditions: Dengue virus, DENV2, Huh-7, 72 h, read-out: DENV Huh-7 (EC50, μM)
Protocol: as §1, §2, §3

[4] = tested on: CHIKV strain S27; assay: CHIKV CPE inhibition assay in Huh7 cells; assay type: cell-based; conditions: Chikungunya virus; for EC50: read-out: CHIKV Huh-7 (EC50, μM)
Protocol: The antiviral activities of the nucleoside analogs against chikungunya virus (CHIKV) were tested using a cell-based high-throughput CPE (cytopathic effect) inhibition assay. In this assay, CHIKV strain S27 and Huh7 cells (a human hepatoma cell line) were employed. The test compounds were prepared in a 9-point fourfold serial dilutions and plated in a 384-well plate. Then, a density of 8000 cells/well and an MOI (Multiplicity of Infection) of 0.25 CHIKV were added to each well. The plates were incubated at 37° C./5% CO2 for 2 days. The antiviral activity of a test compound was measured by addition of an ATPLite™ 1-step kit (PerkinElmer), which measures the ATP levels in live cells protected from viral CPE by a test compound. The cytotoxicity of test compounds was measured in parallel in the absence of virus infection. The readout is luminescence.

[5] = Cytotoxicity in Vero cells (ATPlite cell viability); assay type: cell-based; conditions: African green monkey, Table 1A, read-out: Tox Vero (CC50)
Protocol: as §1
(§4) In parallel, cytotoxic effects of the compounds (50% cytotoxic concentration [CC50] and 90% cytotoxic concentration [CC90]) were evaluated using an ATPlite cell viability luminescence assay (PerkinElmer). To this end, ATPlite was added to the wells according to the supplier's instructions once the eGFP read-out was performed, and the luminescence was measured; a measure directly relating to the number of viable cells. The CC50 was determined as the 50% inhibitory concentration for the luminescent signal in compound-treated DENV-infected cells compared to untreated DENV-infected cells (virus control), using a medium control as baseline of emitted light (i.e., 0% signal).

[6] = Cytotoxicity in Huh-7 cells (ATPlite cell viability); assay type: cell-based; conditions: human, Table 1A, read-out: Tox Huh-7 (CC50)
Protocol: as §1, §4

[7] = target: HCV polymerase (Hepatitis C virus genotype 1b, UniProt Q9WMX2); assay: Biochemical HCV polymerase inhibition
Sequence of HCV polymerase (Q9WMX2 2420-3010): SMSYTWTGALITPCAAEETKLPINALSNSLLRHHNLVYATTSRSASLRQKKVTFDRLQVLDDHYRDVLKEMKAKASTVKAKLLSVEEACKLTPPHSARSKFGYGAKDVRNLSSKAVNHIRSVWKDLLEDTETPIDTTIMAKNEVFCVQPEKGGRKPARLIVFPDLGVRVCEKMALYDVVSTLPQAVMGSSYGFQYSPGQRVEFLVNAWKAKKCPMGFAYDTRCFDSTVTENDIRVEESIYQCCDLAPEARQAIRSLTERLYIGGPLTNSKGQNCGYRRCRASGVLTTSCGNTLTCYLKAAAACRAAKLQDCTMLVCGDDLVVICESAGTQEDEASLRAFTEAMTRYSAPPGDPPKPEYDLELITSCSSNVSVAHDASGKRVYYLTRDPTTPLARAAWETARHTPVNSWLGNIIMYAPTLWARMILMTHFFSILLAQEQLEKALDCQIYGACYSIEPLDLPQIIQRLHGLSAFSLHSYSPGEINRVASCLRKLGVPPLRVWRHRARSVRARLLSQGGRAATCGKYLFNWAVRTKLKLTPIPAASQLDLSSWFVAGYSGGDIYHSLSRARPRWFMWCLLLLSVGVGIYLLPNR

[8] = Huh-7, 72 h, Table 1A, Huh-Luc replicon cells, 3 days, read-out: HCV Huh-7 (EC50)
[9] = Huh-7, 48 h, Table 1A, Huh7 cells, MOI 0.25, 2 days, read-out: CHIKV Huh-7 (EC50)

Row | Compound | pEC50 [1, 8] | EC50 [2] [µM] | EC50 [3] [µM] | pEC50 [4, 9] | CC50 [5] [µM] | CC50 [6] [µM] | EC50 ([4]; Huh-7, 48 h) [µM] | pIC50 [7] | pEC50 ([1]; Huh-7, Table 1C, comparison with spiro-oxetane derivatives, read-out: HCV, Huh-7 (EC50)) | pEC50 ([4]; Huh-7, Table 1C, comparison with spiro-oxetane derivatives, read-out: CHIKV, Huh7 (EC50)) | EC50 ([1]; Huh-7, 72 h, read-out: HCV Huh-7 (EC50, μM)) [µM]
1 | CCCCOC(=O)[C@H](C)NP(=O)(OC[C@@]1(F)O[C@@H](n2ccc(=O)[nH]c2=O)[C@@]2(CCS2)[C@@H]1O)Oc1ccccc1 (stereo partly drawn) [Compound 25, (2S)-butyl 2-(((((4R,5R,7S,8R)-5-(2,4-dioxo-3,4-dihydropyrimidin-1(2H)-yl)-7-fluoro-8-hydroxy-6-oxa-1-thiaspiro[3.4]octan-7-yl)methoxy)(phenoxy)phosphoryl)amino)propanoate] | 5.70 | 35 | 4 | 5.52 | > 100 | > 100 | – | – | – | – | –
2 | [N-]=[N+]=N[C@]1(CO)O[C@@H](n2ccc(=O)[nH]c2=O)[C@@]2(CCS2)[C@@H]1O [Compound 44, 1-[(4R,5R,6R,8R)-6-azido-5-hydroxy-6-(hydroxymethyl)-7-oxa-1-thiaspiro[3.4]octan-8-yl]pyrimidine-2,4-dione] | < 4.00 | > 100 | > 100 | – | > 100 | > 100 | > 100 | – | – | – | –
3 | [N-]=[N+]=N[C@]1(COP(=O)(O)OP(=O)(O)OP(=O)(O)O)O[C@@H](n2ccc(=O)[nH]c2=O)[C@@]2(CCS2)[C@@H]1O [Compound 62] | – | – | – | – | – | – | – | 6.25 | – | – | –
4 | O=c1ccn([C@@H]2O[C@](F)(CO)[C@@H](O)[C@]23CCS3)c(=O)[nH]1 [Compound 22, 1-((4R,5R,7S,8R)-7-fluoro-8-hydroxy-7-(hydroxymethyl)-6-oxa-1-thiaspiro[3.4]octan-5-yl)pyrimidine-2,4(1H,3H)-dione] | 4.08 | 63 | 69 | – | > 100 | > 100 | > 100 | – | – | – | –
5 | O=c1ccn([C@@H]2O[C@]3(F)CO[P@](=O)(NC4CCC4)O[C@H]3[C@]23CCS3)c(=O)[nH]1 [Compound 40a, 1-((2R,2′R,4aS,6R,7aR)-2-(cyclobutylamino)-4a-fluoro-2-oxidotetrahydrospiro[furo[3,2-d][1,3,2]dioxaphosphinine-7,2′-thietan]-6-yl)pyrimidine-2,4(1H,3H)-dione] | < 4.00 | > 100 | > 100 | < 4.00 | > 100 | > 100 | – | – | – | – | –
6 | Nc1ccn([C@@H]2O[C@](F)(CO)[C@@H](O)[C@]23CCS3)c(=O)n1 [Compound 27, 4-amino-1-((4R,5R,7S,8R)-7-fluoro-8-hydroxy-7-(hydroxymethyl)-6-oxa-1-thiaspiro[3.4]octan-5-yl)pyrimidin-2(1H)-one] | < 4.00 | 50 | 77 | – | > 100 | > 100 | > 100 | – | – | – | –
7 | CC(C)OC(=O)[C@H](C)NP(=O)(OC[C@H]1O[C@@H](n2ccc(=O)[nH]c2=O)[C@@]2(CCS2)[C@@H]1O)Oc1ccccc1 (stereo partly drawn) [Compound 9, (2S)-isopropyl 2-(((((4R,5R,7R,8R)-5-(2,4-dioxo-3,4-dihydropyrimidin-1(2H)-yl)-8-hydroxy-6-oxa-1-thiaspiro[3.4]octan-7-yl)methoxy)(phenoxy)phosphoryl)amino)propanoate] | 6.00 | > 100 | 9 | 4.74 | > 100 | > 100 | – | – | 6.00 | 4.74 | –
8 | CC(C)OC(=O)C(C)NP(=O)(OC[C@@]1(N=[N+]=[N-])O[C@@H](n2ccc(=O)[nH]c2=O)[C@@]2(CCS2)[C@@H]1O)Oc1ccccc1 (stereo in doubt) [Compound 45, isopropyl (2R)-2-[[[(4R,5R,6R,8R)-6-azido-8-(2,4-dioxopyrimidin-1-yl)-5-hydroxy-7-oxa-1-thiaspiro[3.4]octan-6-yl]methoxy-phenoxy-phosphoryl]amino]propanoate] | 5.30 | 62 | 62 | < 4.00 | > 100 | > 100 | – | – | – | – | –
9 | CC(C)C(=O)OC[C@H]1O[C@@H](n2ccc(N)nc2=O)[C@@]2(CCS2)[C@@H]1OC(=O)C(C)C [Compound 11, (4R,5R,7R,8R)-5-(4-amino-2-oxopyrimidin-1(2H)-yl)-7-((isobutyryloxy)methyl)-6-oxa-1-thiaspiro[3.4]octan-8-yl isobutyrate] | < 4.00 | > 100 | > 100 | – | > 100 | > 100 | > 100 | – | – | – | –
10 | O=c1ccn([C@@H]2O[C@]3(F)CO[P@@](=O)(NC4CCC4)O[C@H]3[C@]23CCS3)c(=O)[nH]1 [Compound 40b, 1-((2S,2′R,4aS,6R,7aR)-2-(cyclobutylamino)-4a-fluoro-2-oxidotetrahydrospiro[furo[3,2-d][1,3,2]dioxaphosphinine-7,2′-thietan]-6-yl)pyrimidine-2,4(1H,3H)-dione] | < 4.00 | > 100 | > 100 | < 4.00 | > 100 | > 100 | – | – | – | – | –
11 | CC(C)OP(=O)(OC[C@@]1(F)O[C@@H](n2ccc(=O)[nH]c2=O)[C@@]2(CCS2)[C@@H]1O)Oc1ccc(Cl)cc1 (stereo partly drawn) [Compound 37, 4-chlorophenyl (((4R,5R,7S,8R)-5-(2,4-dioxo-3,4-dihydropyrimidin-1(2H)-yl)-7-fluoro-8-hydroxy-6-oxa-1-thiaspiro[3.4]octan-7-yl)methyl) isopropyl phosphate] | – | > 100 | > 100 | – | > 100 | > 100 | > 100 | – | – | – | > 100

Reference: US11267844B2, “Spirothietane nucleosides” (Janssen Pharmaceutica NV, priority 2017, dated 2022)
